The values below come from patent US20230265151A1, “GIP/GLP1 CO-AGONIST COMPOUNDS” (priority 2020, published 2023).

In one test the target is T1, hGIPR (Homo sapiens, UniProt P48546).
T1 construct: expressed in transfected cells
T1 sequence (P48546 22-466): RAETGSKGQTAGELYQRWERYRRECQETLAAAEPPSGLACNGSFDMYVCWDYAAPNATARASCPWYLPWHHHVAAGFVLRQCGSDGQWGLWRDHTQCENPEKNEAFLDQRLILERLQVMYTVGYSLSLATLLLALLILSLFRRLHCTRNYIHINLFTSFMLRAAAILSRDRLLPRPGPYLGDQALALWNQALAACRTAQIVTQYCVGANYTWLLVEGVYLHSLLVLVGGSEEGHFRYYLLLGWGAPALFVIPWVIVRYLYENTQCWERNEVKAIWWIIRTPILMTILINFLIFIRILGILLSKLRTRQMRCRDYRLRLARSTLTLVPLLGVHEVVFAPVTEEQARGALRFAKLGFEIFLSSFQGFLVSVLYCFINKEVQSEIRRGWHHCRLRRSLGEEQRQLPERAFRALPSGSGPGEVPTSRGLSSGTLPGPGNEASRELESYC
Nature of the test: Functional cAMP formation (HTRF) in HEK-293 clonal cells expressing hGIPR, 0.1% bovine casein, without or with 1.0% human serum albumin. The class given is cell-based. The conditions noted are these: for Emax: HEK293, percent of maximal response to GIP(1-42)NH2, 37° C., 0.1% bovine casein, arithmetic mean, read-out: hGIPR Emax, % ± SEM; for EC50: cAMP, incubated at 37° C., 0.1% bovine casein (no human serum albumin), geometric mean, read-out: hGIPR EC50, nM (SEM, n). Put shortly:
(§1)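 Cells were stimulated with peptide for 30 min at 37° C, then lysed in buffer carrying cAMP-d2 and anti-cAMP Eu3+-cryptate for a competitive HTRF read after at least 60 min at room temperature. The 665/620 nm ratio was converted to nM cAMP against a standard curve.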

The target in the next test is T2, hGCGR (Homo sapiens, UniProt P47871).
T2 construct: expressed in transfected cells
Nature of the test: Functional cAMP formation (HTRF) in HEK-293 clonal cells expressing hGCGR, 0.1% bovine casein, without or with 1.0% human serum albumin. The test is classed as cell-based. The following applies: cAMP, incubated at 37° C., 0.1% bovine casein (no human serum albumin); geometric mean; read-out: hGCGR EC50, nM (SEM, n). Put shortly:
as §1
(Changes in cAMP serve as a functional read-out for many G protein-coupled receptors.)

T2 sequence (P47871 26-477): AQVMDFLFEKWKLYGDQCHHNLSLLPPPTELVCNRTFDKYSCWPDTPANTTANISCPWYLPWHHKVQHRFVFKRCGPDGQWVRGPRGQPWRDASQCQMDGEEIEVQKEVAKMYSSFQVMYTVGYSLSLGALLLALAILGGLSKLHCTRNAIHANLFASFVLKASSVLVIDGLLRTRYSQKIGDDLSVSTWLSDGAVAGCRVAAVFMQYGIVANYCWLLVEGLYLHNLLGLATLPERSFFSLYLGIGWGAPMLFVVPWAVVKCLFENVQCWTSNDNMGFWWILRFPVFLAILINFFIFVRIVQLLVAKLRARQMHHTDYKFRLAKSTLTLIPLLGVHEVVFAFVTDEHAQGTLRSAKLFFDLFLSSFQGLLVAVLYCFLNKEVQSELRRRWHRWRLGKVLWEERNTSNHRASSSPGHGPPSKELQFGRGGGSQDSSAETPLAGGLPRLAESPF

For orientation: Emax means the size of the effect at its maximum, as opposed to the concentration needed. In general, EC50 refers to the concentration at which the effect is half-maximal. As to `CC[C@H](C)[C@H](NC(=O)[C@H](CC(C)C)NC(=O)[C@](C)(Cc1ccc(O)cc1)NC(=O)[C@@H](CCC(=O)O)NC(=O)[C@@H](NC(=O)[C@H](Cc1ccccc1)NC(=O)[C@H](CCC(=O)O)NC(=O)C(C)(C)NC(=O)[C@H](CCC(N)=O)NC(=O)[C@H](C)NC(=O)[C@H](CCCCNC(=O)COCCOCCNC(=O)COCCOCCNC(=O)CC[C@H](NC(=O)CCCc1ccc(C(C)(C)C)cc1)C(=O)O)NC(=O)[C@H](CCCN)NC(=O)[C@H](CC(=O)O)NC(=O)[C@H](CC(C)C)NC(=O)[C@](C)(CC(C)C)NC(=O)[C@@H](NC(=O)C(C)(C)NC(=O)[C@@H](NC(=O)[C@H](CC(=O)O)NC(=O)[C@H](CO)NC(=O)[C@@H](NC(=O)[C@](C)(Cc1ccccc1F)NC(=O)[C@@H](NC(=O)CNC(=O)[C@H](CCC(=O)O)NC(=O)C(C)(C)NC(=O)[C@@H](N)Cc1ccc(O)cc1)[C@@H](C)O)[C@@H](C)O)C(C)C)[C@@H](C)CC)[C@@H](C)CC)C(=O)N[C@@H](CCC(=O)O)C(=O)NCC(=O)NCC(=O)N[C@@H](CCCCNC(=O)COCCOCCNC(=O)COCCOCCNC(=O)CC[C@H](NC(=O)CCCc1ccc(C(C)(C)C)cc1)C(=O)O)C(=O)N[C@@H](CO)C(=O)N[C@@H](CO)C(=O)NCC(=O)N[C@@H](C)C(=O)N1CCC[C@H]1C(=O)N1CCC[C@H]1C(=O)N1CCC[C@H]1C(=O)N[C@@H](CO)C(N)=O` [Example 177], the Emax on hGIPR is 113%. Moreover, the EC50 at hGCGR is above 9950 nM.

As to `CC[C@H](C)[C@H](NC(=O)[C@H](CC(C)C)NC(=O)[C@](C)(Cc1ccc(O)cc1)NC(=O)[C@@H](CCC(=O)O)NC(=O)[C@@H](NC(=O)[C@H](Cc1ccccc1)NC(=O)[C@H](CCC(=O)O)NC(=O)C(C)(C)NC(=O)[C@H](CCC(N)=O)NC(=O)[C@H](C)NC(=O)[C@H](CCCCNC(=O)COCCOCCNC(=O)COCCOCCNC(=O)CC[C@H](NC(=O)CCCCCCCCCCCCC(=O)O)C(=O)O)NC(=O)CNC(=O)[C@H](CC(=O)O)NC(=O)[C@H](CC(C)C)NC(=O)[C@](C)(CC(C)C)NC(=O)[C@@H](NC(=O)[C@H](CO)NC(=O)[C@H](Cc1ccncc1)NC(=O)[C@H](CC(=O)O)NC(=O)[C@H](CO)NC(=O)[C@@H](NC(=O)[C@](C)(Cc1ccccc1F)NC(=O)[C@@H](NC(=O)CNC(=O)[C@H](CCC(=O)O)NC(=O)C(C)(C)NC(=O)[C@@H](N)Cc1ccc(O)cc1)[C@@H](C)O)[C@@H](C)O)[C@@H](C)CC)[C@@H](C)CC)C(=O)N[C@@H](CCC(=O)O)C(=O)NCC(=O)NCC(=O)N[C@@H](CCCCNC(=O)COCCOCCNC(=O)COCCOCCNC(=O)CC[C@H](NC(=O)CCCCCCCCCCCCC(=O)O)C(=O)O)C(=O)N[C@@H](CO)C(=O)N[C@@H](CO)C(=O)NCC(=O)N[C@@H](C)C(=O)N1CCC[C@H]1C(=O)N1CCC[C@H]1C(=O)N1CCC[C@H]1C(=O)N[C@@H](CO)C(N)=O` [Example 101], the Emax on hGIPR amounted to 92.1%. Moreover, the EC50 at hGCGR is above 9950 nM.

In the case of `CC[C@H](C)[C@H](NC(=O)[C@H](CC(C)C)NC(=O)[C@](C)(Cc1ccc(O)cc1)NC(=O)[C@@H](CCC(=O)O)NC(=O)[C@@H](NC(=O)[C@H](Cc1ccccc1)NC(=O)[C@H](CCC(=O)O)NC(=O)C(C)(C)NC(=O)[C@H](CCC(N)=O)NC(=O)[C@H](C)NC(=O)[C@H](CCC(N)=O)NC(=O)[C@H](CCCN)NC(=O)[C@H](CC(=O)O)NC(=O)[C@H](CC(C)C)NC(=O)[C@](C)(CC(C)C)NC(=O)[C@@H](NC(=O)[C@H](CO)NC(=O)[C@H](Cc1ccncc1)NC(=O)[C@H](CC(=O)O)NC(=O)[C@H](CO)NC(=O)[C@@H](NC(=O)[C@](C)(Cc1ccccc1F)NC(=O)[C@@H](NC(=O)CNC(=O)[C@H](CCC(=O)O)NC(=O)C(C)(C)NC(=O)[C@@H](N)Cc1ccc(O)cc1)[C@@H](C)O)[C@@H](C)O)[C@@H](C)CC)[C@@H](C)CC)C(=O)N[C@@H](CCCCNC(=O)COCCOCCNC(=O)COCCOCCNC(=O)CC[C@H](NC(=O)CCCCCCCCCCCCC(=O)O)C(=O)O)C(=O)NCC(=O)NCC(=O)N[C@@H](CCCCNC(=O)COCCOCCNC(=O)COCCOCCNC(=O)CC[C@H](NC(=O)CCCCCCCCCCCCC(=O)O)C(=O)O)C(=O)N[C@@H](CO)C(=O)N[C@@H](CO)C(=O)NCC(=O)N[C@@H](C)C(=O)N1CCC[C@H]1C(=O)N1CCC[C@H]1C(=O)N1CCC[C@H]1C(=O)N[C@@H](CO)C(N)=O` [Example 86], the Emax at hGIPR came to 94.2 ± 1.16%. The EC50 was 0.0184 nM at hGIPR and above 9950 nM at hGCGR.

In the case of `CC[C@H](C)[C@H](NC(=O)[C@H](CC(C)C)NC(=O)[C@](C)(Cc1ccc(O)cc1)NC(=O)[C@@H](CCC(=O)O)NC(=O)[C@@H](NC(=O)[C@H](Cc1ccccc1)NC(=O)[C@H](CCC(=O)O)NC(=O)C(C)(C)NC(=O)[C@H](CCC(N)=O)NC(=O)[C@H](C)NC(=O)[C@H](CCCCNC(=O)COCCOCCNC(=O)COCCOCCNC(=O)CC[C@H](NC(=O)CCCCCCCCCCCCC(=O)O)C(=O)O)NC(=O)[C@H](CCCN)NC(=O)[C@H](CC(=O)O)NC(=O)[C@H](CC(C)C)NC(=O)[C@](C)(CC(C)C)NC(=O)[C@@H](NC(=O)C(C)(C)NC(=O)[C@@H](NC(=O)[C@H](CC(=O)O)NC(=O)[C@H](CO)NC(=O)[C@@H](NC(=O)[C@](C)(Cc1ccccc1)NC(=O)[C@@H](NC(=O)CNC(=O)[C@H](CCC(=O)O)NC(=O)C(C)(C)NC(=O)[C@@H](N)Cc1ccc(O)cc1)[C@@H](C)O)[C@@H](C)O)C(C)C)[C@@H](C)CC)[C@@H](C)CC)C(=O)N[C@@H](CCC(=O)O)C(=O)NCC(=O)NCC(=O)N[C@@H](CCCCNC(=O)COCCOCCNC(=O)COCCOCCNC(=O)CC[C@H](NC(=O)CCCCCCCCCCCCC(=O)O)C(=O)O)C(=O)N[C@@H](CO)C(=O)N[C@@H](CO)C(=O)NCC(=O)N[C@@H](C)C(=O)N1CCC[C@H]1C(=O)N1CCC[C@H]1C(=O)N1CCC[C@H]1C(=O)N[C@@H](CO)C(N)=O` [Example 180], the Emax on hGIPR stood at 86.8%. The EC50 on hGCGR was above 9950 nM.

With `CC[C@H](C)[C@H](NC(=O)[C@H](CC(C)C)NC(=O)[C@](C)(Cc1ccc(O)cc1)NC(=O)[C@@H](CCC(=O)O)NC(=O)[C@@H](NC(=O)[C@H](Cc1ccccc1)NC(=O)[C@H](CCC(=O)O)NC(=O)C(C)(C)NC(=O)[C@H](CCC(N)=O)NC(=O)[C@H](C)NC(=O)[C@H](CCCCNC(=O)COCCOCCNC(=O)COCCOCCNC(=O)CC[C@H](NC(=O)CCCCCCOc1ccc(C(=O)O)cc1)C(=O)O)NC(=O)[C@H](CCCN)NC(=O)[C@H](CC(=O)O)NC(=O)[C@H](CC(C)C)NC(=O)[C@](C)(CC(C)C)NC(=O)[C@@H](NC(=O)[C@H](CO)NC(=O)[C@H](Cc1ccncc1)NC(=O)[C@H](CC(=O)O)NC(=O)[C@H](CO)NC(=O)[C@@H](NC(=O)[C@](C)(Cc1ccccc1F)NC(=O)[C@@H](NC(=O)CNC(=O)[C@H](CCC(=O)O)NC(=O)C(C)(C)NC(=O)[C@@H](N)Cc1ccc(O)cc1)[C@@H](C)O)[C@@H](C)O)[C@@H](C)CC)[C@@H](C)CC)C(=O)N[C@@H](CCC(=O)O)C(=O)NCC(=O)NCC(=O)N[C@@H](CCCCNC(=O)COCCOCCNC(=O)COCCOCCNC(=O)CC[C@H](NC(=O)CCCCCCOc1ccc(C(=O)O)cc1)C(=O)O)C(=O)N[C@@H](CO)C(=O)N[C@@H](CO)C(=O)NCC(=O)N[C@@H](C)C(=O)N1CCC[C@H]1C(=O)N1CCC[C@H]1C(=O)N1CCC[C@H]1C(=O)N[C@@H](CO)C(N)=O` [Example 125], on hGIPR, the Emax is 94.4%. For the same compound, the EC50 is 0.0547 nM at hGIPR and above 9950 nM at hGCGR.

For `CC[C@H](C)[C@H](NC(=O)[C@H](CC(C)C)NC(=O)[C@](C)(Cc1ccc(O)cc1)NC(=O)[C@@H](CCC(=O)O)NC(=O)[C@@H](NC(=O)[C@H](Cc1ccccc1)NC(=O)[C@H](CCC(=O)O)NC(=O)C(C)(C)NC(=O)[C@H](CCC(N)=O)NC(=O)[C@H](C)NC(=O)[C@H](CCCCNC(=O)COCCOCCNC(=O)COCCOCCNC(=O)CC[C@H](NC(=O)CCCCCCCCCCCCC(=O)O)C(=O)O)NC(=O)[C@H](CCCN)NC(=O)[C@H](CC(=O)O)NC(=O)[C@H](CC(C)C)NC(=O)[C@](C)(CC(C)C)NC(=O)[C@@H](NC(=O)[C@H](CO)NC(=O)[C@H](Cc1ccsc1)NC(=O)[C@H](CC(=O)O)NC(=O)[C@H](CO)NC(=O)[C@@H](NC(=O)[C@](C)(Cc1ccccc1F)NC(=O)[C@@H](NC(=O)CNC(=O)[C@H](CCC(=O)O)NC(=O)C(C)(C)NC(=O)[C@@H](N)Cc1ccc(O)cc1)[C@@H](C)O)[C@@H](C)O)[C@@H](C)CC)[C@@H](C)CC)C(=O)N[C@@H](CCC(=O)O)C(=O)NCC(=O)NCC(=O)N[C@@H](CCCCNC(=O)COCCOCCNC(=O)COCCOCCNC(=O)CC[C@H](NC(=O)CCCCCCCCCCCCC(=O)O)C(=O)O)C(=O)N[C@@H](CO)C(=O)N[C@@H](CO)C(=O)NCC(=O)N[C@@H](C)C(=O)N1CCC[C@H]1C(=O)N1CCC[C@H]1C(=O)N1CCC[C@H]1C(=O)N[C@@H](CO)C(N)=O` [Example 146], at hGIPR, the Emax stood at 76.5% and the EC50 turned out to be 0.0198 nM. The EC50 on hGCGR is above 9950 nM.
